In US20190262307A1, “IGURATIMOD AS AN MIF INHIBITOR” (THE FEINSTEIN INSTITUTE FOR MEDICAL RESEARCH, priority 2016, published 2019):

Legend:
[1] = system: adherence-purified human peripheral blood monocytes; experiment: Glucocorticoid synergy in vitro, adherence-purified monocytes; assay type: cell-based; conditions: LPS
Description: Glucocorticoid Synergy in vitro: The methods of Roger et al. and Kerschbaumer et al. were adapted for these experiments (17, 21). […] Cell-free supernatants were collected and analyzed immediately with a murine TNFα ELISA at a 1:10 dilution. THP-1 cells were plated at a density of 2×10^5 cells/well in a 96-well plate and used the same day with the same treatment conditions as RAW 264.7 cells, except that THP-1 cells were incubated with LPS for 16 hours prior to isolation of cell-free supernatants. Supernatants were analyzed using a human TNFα ELISA at a 1:10 dilution. Human peripheral blood mononuclear cells isolated by adherence (described above) were plated at a density of 2×10^5 cells/well in a 96-well plate and used the same day with the same treatment conditions as THP-1 cells. Supernatants were analyzed using a human TNFα ELISA at a 1:20 dilution. […] Cells were treated under the same conditions as THP-1 cells and supernatants were analyzed using a human TNFα ELISA at a 1:10 dilution.
For all above experiments, cytotoxicity was assessed using an MTT assay (1-2 hour incorporation); no significant cytotoxicity effects were observed under any treatment conditions unless otherwise noted.

[2] = early communications; cited from earlier work
[3] = system: C57/BL6 and MIF−/− mice, LPS; experiment: Non-lethal endotoxemia, serum TNFα; assay type: in vivo, mouse; conditions: 90 minutes post-LPS, 20 mg/kg i.p.
Excerpt: Animal Experiments: The Institutional Animal Care and Use Committee of the Feinstein Institute for Medical Research reviewed and approved all animal protocols prior to initiation of experiments. Male BALB/c mice were purchased from the Jackson Laboratory (Bar Harbor, Me.) and used for endotoxemia experiments at ages 8-10 weeks. MIF KO animals were maintained on a C57/BL6 NCr background from Charles River Laboratories (Stone Ridge, N.Y.); these animals were used alongside matched wild-type animals for endotoxemia experiments at ages 8-12 weeks.
Endotoxemia: Endotoxemia was induced by intraperitoneal injection of LPS from E. coli O111:B4 (Sigma). […] Blood was collected by cardiac puncture and allowed to clot 20 minutes at room temperature and 20 minutes at 4° C.; sera were isolated by centrifugation at 300×g for 10 minutes and stored at −20° C. for further analysis by TNFα ELISA (1:3 dilution).

[4] = system: LPS-treated human peripheral blood monocytes; experiment: LPS-induced cytokine release in human monocytes enriched by negative selection; assay type: cell-based; conditions: for TNFα release: concentrations up to 50 μM
Excerpt: Preparation of Peripheral Blood Cells: Human peripheral blood was collected in sodium heparin (IRB#12-200A) or obtained as Leukopaks from New York Blood Center (New York, N.Y.). Mononuclear cells were isolated by density gradient centrifugation in Ficoll-Paque Plus (GE Healthcare; Pittsburgh, Pa.). Monocytes were either purified by two-hour adherence to Primaria culture plates (Corning Life Sciences; Corning, N.Y.) or enriched by negative magnetic selection using Monocyte Isolation Kit II (Miltenyi Biotech; Auburn, Calif.). All monocyte preps were cultured in RPMI supplemented with 10% human AB serum, 100 units/mL penicillin-streptomycin, and 2 mM L-glutamine and used within 24 hours. Macrophages were differentiated from adherence-purified monocytes by incubation with 10 ng/mL human M-CSF (Sigma) for seven days, with media replenishment performed on days 3 and 5.
Cytokine Production Assays: For LPS-induced cytokine release, negative selection-enriched monocytes (human) or mixed peripheral blood leukocytes (murine) were plated at a density of 2×10^5 cells/mL in 96-well plates. Cells were pre-treated with MIF inhibitors in 0.1% DMSO (final) for 1 hour before stimulation with LPS from E. coli R515 (Axxora; Farmingdale, N.Y.): 24 hours for human cells, 5 hours for murine cells. Cell-free supernatants were collected and stored at −80° C. for cytokine determinations by ELISA; 1:2 dilutions were used for TNFα and 1:3 dilutions for IL-8 and MCP-1.

neonates pups with CDH = experiment: Nitrofen congenital diaphragmatic hernia (CDH) model, neonate pups; assay type: in vivo; conditions: vs Nitrofen group; for VGEF / eNOS phosphorylation: P<0.05
[5] = system: LPS-stimulated human peripheral blood monocytes; conditions: cited from earlier work
[6] = 1 h pre-treatment, 1 ng/mL LPS 24 h

CS(=O)(=O)Nc1cc2occ(NC=O)c(=O)c2cc1Oc1ccccc1 [Compound T-614, 3-formylamino-7-methylsulfonylamino-6-phenoxy-4H-1-benzopyran-4-one]
concentration at which TNFα is suppressed (as low as) [1]: ≤ 10 µM
oral bioavailability [2]: orally bioavailable
serum TNFα, MIF−/− mice [3]: no significant effect

O=C(O/N=C/c1ccc(O)cc1)C1CCCCC1 [OXIM-11]
TNFα release [4, 6]: almost completely spared
suppression of the cytokines analyzed (TNFα, MCP-1, IL-8) ([4]; LPS-treated monocytes): minimal suppression

COC(=O)CC1CC(c2ccc(O)cc2)=NO1 (centres unmarked) [ISO-1]
Arginase II (neonates pups with CDH): significantly lower
VGEF (neonates pups with CDH): significant increase
eNOS phosphorylation (neonates pups with CDH): significant increase
TNFα release [4, 6]: moderate suppression

Oc1ccc(-c2cnc3ccccn23)cc1O [Compound K-664.1]
MCP-1 release [4, 6]: stronger suppressors of MCP-1 than TNFα
TNFα release [4, 6]: moderate suppression

COc1ccc2c(c1)c(CC(=O)O)c(C)n2C(=O)c1ccc(Cl)cc1 [indomethacin]
IL-1β intracellular accumulation [5]: increases intracellular accumulation
IL-1β release [5]: inhibits release

N[C@H](Cc1cc(I)c(Oc2cc(I)c(O)c(I)c2)c(I)c1)C(=O)O [d-T4]
IL-8 release [4, 6]: moderate suppression
TNFα release [4, 6]: almost completely spared

CC(C)(C)COC(=O)CC1CC(c2ccc(O)c(F)c2)=NO1 (centres unmarked) [ISO-92]
Arginase II (neonates pups with CDH): significantly lower
VGEF (neonates pups with CDH): significant increase
eNOS phosphorylation (neonates pups with CDH): significant increase
MCP-1 release [4, 6]: stronger suppressors of MCP-1 than TNFα
TNFα release [4, 6]: almost completely spared
